Where two headings read alike, the source gives them in different places.
How the values were obtained:
[1] = target: T1, rVGAT (RUNC-47, rat unc-47 homologue) (Rattus norvegicus, UniProt O35458); experiment: 3H-GABA transport assay in vesicles from PC12 cells stably expressing rVGAT (RUNC-47); format: biochemical
T1 construct: expressed in transfected cells
T1 sequence (O35458 1-525): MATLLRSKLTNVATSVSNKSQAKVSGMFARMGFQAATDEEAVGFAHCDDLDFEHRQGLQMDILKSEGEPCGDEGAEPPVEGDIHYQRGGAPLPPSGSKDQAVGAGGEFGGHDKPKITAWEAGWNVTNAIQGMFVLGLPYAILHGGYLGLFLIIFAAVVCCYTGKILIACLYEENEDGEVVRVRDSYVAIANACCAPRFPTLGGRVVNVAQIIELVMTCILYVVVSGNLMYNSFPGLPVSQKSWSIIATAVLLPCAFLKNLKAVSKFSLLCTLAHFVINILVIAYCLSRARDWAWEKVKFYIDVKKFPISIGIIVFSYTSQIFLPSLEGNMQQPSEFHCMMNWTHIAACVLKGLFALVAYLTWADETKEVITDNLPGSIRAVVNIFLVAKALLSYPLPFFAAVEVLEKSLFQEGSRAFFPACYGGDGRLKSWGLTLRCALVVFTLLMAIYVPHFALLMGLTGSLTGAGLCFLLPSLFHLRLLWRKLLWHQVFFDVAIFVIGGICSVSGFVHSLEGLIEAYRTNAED
Procedure: Stable PC12 transformants expressing high levels of the putative transport protein were isolated by screening cell clones with fluorescent-tagged antibodies generated against the rat unc-47 homologue RUNC-47. […] A population of light vesicles was then isolated from two stable transformants and purified by differential centrifugation (Example 7).
Hereafter, the terms RUNC-47 and rVGAT are used interchangeably.
These studies were carried out in the transport assay detailed in Example 8, using synaptic vesicles prepared from transfected PC-12 cells, as described above and detailed in Example 7.
Briefly, vesicles were prepared from PC12 cell clone B1 stably expressing rVGAT and from un-transfected cells.
The rat unc-47 homologue cDNA subcloned into the plasmid expression vector pcDNA3-Amp (InVitrogen; Carlsbad, Calif.) was introduced into PC12 cells by electroporation (Grote, et al., Cell 81, 581-589, 1995). […] The nuclear debris was sedimented at 100 g for 5 minutes and heavier membranes were eliminated by centrifugation at 27,000 g for 1 hour The remaining light membrane vesicles were sedimented at 65,000 g for 1 hour and resuspended in SH containing the same protease inhibitors at a final concentration of approximately 10 μg protein/μl.
Incubation was performed at 29° C. for varying intervals and the reaction was terminated by rapid filtration (Supor 200, Gelman; AnnArbor, Mich.), followed by immediate washing with 6 ml cold 0.15 M KCl. Background uptake was determined by incubation at 4° C. for 0 minutes. The bound radioactivity was measured by scintillation counting in 2.5 ml Cytoscint (ICN). […] Nigericin and valinomycin were dissolved in ethanol and added to final concentrations of 5 μM and 20 μM respectively. Transport measurements were performed in duplicate and repeated three or more times using at least two different membrane preparations.

[2] = target: T2, vesicular monoamine transporter 1 (VMAT1) (Rattus norvegicus, UniProt Q01818); experiment: Serotonin transport by endogenous VMAT1 in the same PC12 cell membrane preparations; format: biochemical
T2 construct: transport of serotonin by endogenous VMAT1; endogenous in cells; host or cells: PC12 cells (clone B1 stably expressing rVGAT), light membrane vesicles
T2 sequence (Q01818 1-521): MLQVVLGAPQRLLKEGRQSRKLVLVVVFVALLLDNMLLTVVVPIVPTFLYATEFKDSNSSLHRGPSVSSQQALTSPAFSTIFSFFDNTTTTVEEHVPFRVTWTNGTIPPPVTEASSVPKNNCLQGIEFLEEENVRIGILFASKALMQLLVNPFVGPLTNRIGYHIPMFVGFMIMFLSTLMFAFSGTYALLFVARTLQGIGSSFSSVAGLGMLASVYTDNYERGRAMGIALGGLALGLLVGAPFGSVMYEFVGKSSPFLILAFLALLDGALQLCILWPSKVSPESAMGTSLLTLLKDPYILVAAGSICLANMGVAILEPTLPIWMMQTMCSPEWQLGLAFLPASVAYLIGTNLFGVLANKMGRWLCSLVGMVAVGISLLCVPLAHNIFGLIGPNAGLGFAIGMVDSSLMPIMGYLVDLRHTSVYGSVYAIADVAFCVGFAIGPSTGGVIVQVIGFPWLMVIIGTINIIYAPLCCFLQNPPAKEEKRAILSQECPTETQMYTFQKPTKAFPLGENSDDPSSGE
Text: Since nigericin inhibits VMAT1 activity on these vesicles to a greater extent (approximately 65%) than it inhibits rVGAT activity, vesicular transport of serotonin has a greater dependence on ΔpH. […] Thus, rVGAT and VMAT1 depend on both components of the electrochemical gradient but VMAT1 depends to a greater extent on ΔpH, consistent with previous results using mixed populations of synaptic vesicles.

RUNC-47 (rVGAT) = RUNC-47 (rVGAT) (Rattus norvegicus, UniProt O35458)
[3] = substrate: NCCCC(=O)O; experiment: cells, lysate or membranes named; settings: other: transfected PC12 cell vesicles; uptake measured at 30 seconds; pH 7.4; 29.0 °C

With CCCC(=O)O [n-butyric acid] the IC50 [1] was 43.5 mM and the “Inhibition of rVGAT activity (3H-GABA transport), in words” value (from here on “Inhibition of rVGAT activity”) ([1]; vesicles from rVGAT-transfected PC12 cells, about 40 μM GABA) was “inhibits both rVGAT activity and GABA transport into brain synaptic vesicles”.

In the case of CO[C@@H]1C[C@@H](C[C@H]2CC[C@H](C)[C@H]([C@@H](C)C(=O)O)O2)O[C@]2(O[C@](C)([C@H]3CC[C@@](C)([C@@H]4O[C@@H]([C@H]5O[C@@](O)(CO)[C@H](C)C[C@@H]5C)C[C@@H]4C)O3)C[C@H]2C)[C@@H]1C [nigericin], the “Inhibition of GABA transport in rVGAT transfected cells” value ([1]; nigericin 5 FM, PC12 clone B1 membranes) is reported as “approximately 40%” and the “Inhibition of serotonin transport by endogenous VMAT1” value ([2]; nigericin, membranes from transfected PC12 cells that express VGAT) is reported as “approximately 65%”.

NCCCC(=O)O [GABA, gamma-aminobutyric acid] showed an IC50 [1] of 4.75 mM.

With C=CC(N)CCC(=O)O (stereo not drawn) [gamma-vinyl-GABA] the IC50 [1] was 7.5 mM and the “Inhibition of rVGAT activity” value [1] was “as potently as unlabelled GABA”.

With N[C@@H](CCC(=O)O)C(=O)O [glutamate] the “Inhibition of rVGAT activity” value [1] was “does not inhibit rVGAT activity even at extremely high concentrations” and the IC50 ([1]; read-out: Inhibition of GABA Transport by Structurally Related Compounds, IC50, vesicles from rVGAT-transfected PC12 cells, about 40 μM GABA including radiolabeled GABA) was over 100 mM.

For CC(C)[C@@H]1NC(=O)[C@H](C)OC(=O)[C@@H](C(C)C)NC(=O)[C@@H](C(C)C)OC(=O)[C@H](C(C)C)NC(=O)[C@H](C)OC(=O)[C@@H](C(C)C)NC(=O)[C@@H](C(C)C)OC(=O)[C@H](C(C)C)NC(=O)[C@H](C)OC(=O)[C@@H](C(C)C)NC(=O)[C@@H](C(C)C)OC1=O [valinomycin], the “Effect on rVGAT activity of adding valinomycin to nigericin” value ([1]; valinomycin 20 FM added to nigericin 5 FM, PC12 clone B1 membranes) was “eliminates rVGAT activity” and the “Effect on residual VMAT1 activity of adding valinomycin to nigericin” value ([2]; valinomycin added to nigericin, same PC12 membranes) was “eliminates the residual VMAT1 activity”.

For NCC(=O)O [glycine], the IC50 [1] was 27.5 mM, the “Inhibition of rVGAT activity” value [1] was “relatively low potency” and the “Uptake of 3H-glycine by RUNC-47 PC-12 vesicle preparations” value (RUNC-47 (rVGAT)) was “no significant uptake”.

B1: rVGAT (RUNC-47, rat unc-47 homologue) (Rattus norvegicus) (protein)
chain: MATLLRSKLTNVATSVSNKSQAKVSGMFARMGFQAATDEEAVGFAHCDDLDFEHRQGLQMDILKSEGEPCGDEGAEPPVEGDIHYQRGGAPLPPSGSKDQAVGAGGEFGGHDKPKITAWEAGWNVTNAIQGMFVLGLPYAILHGGYLGLFLIIFAAVVCCYTGKILIACLYEENEDGEVVRVRDSYVAIANACCAPRFPTLGGRVVNVAQIIELVMTCILYVVVSGNLMYNSFPGLPVSQKSWSIIATAVLLPCAFLKNLKAVSKFSLLCTLAHFVINILVIAYCLSRARDWAWEKVKFYIDVKKFPISIGIIVFSYTSQIFLPSLEGNMQQPSEFHCMMNWTHIAACVLKGLFALVAYLTWADETKEVITDNLPGSIRAVVNIFLVAKALLSYPLPFFAAVEVLEKSLFQEGSRAFFPACYGGDGRLKSWGLTLRCALVVFTLLMAIYVPHFALLMGLTGSLTGAGLCFLLPSLFHLRLLWRKLLWHQVFFDVAIFVIGGICSVSGFVHSLEGLIEAYRTNAED
B1 was tested, and the Km [3] was 5 mM.

— patent publication US6660846B1, “Vesicular amino acid transporter composition and method” (The Regents of the University of CA, priority 1997, dated 2003)
